From patent US10328079B2, “[6R]-MTHF multiple bolus administration in 5-fluorouracil based chemotherapy” (Isofol Medical AB, priority 2017, dated 2019) come the findings set out here.

The test system of the series is thymidylate synthase (TS). Nature of the series: Historical group comparison study: incremental plasma dUrd (marker of TS inhibition) 24 h after 5-FU bolus plus folate. It is filed as in vivo, human. The procedure:
The elevation of plasma 2′-deoxyuridine (dUrd) is a marker of TS inhibition. (Ford et al. (2002) Clinical Cancer Research, 8(1): 103-109).
The historical group comparison study was conducted as follows:
All patients were treated with a standard dose of 500 mg 5-FU given as a bolus injection plus the respective folate [6R]-MTHF or LV, also given as bolus injections.
In Gothenburg (Sweden), for almost two decades, clinical, treatment and outcomes data on all patients with CRC have been collected at the local university hospital (Östra sjukhuset—Sahlgrenska Universitetssjukhuset). Plasma and tissue samples have been stored in a biobank under appropriate physical conditions for long term storage. The database and the biobank operate under the auspices of the relevant ethical and regulatory permissions. Patients having been treated with the standard 5-FU dose, 500 mg/m2 plus i.v. bolus LV, 60 mg/m2 were randomly drawn from the databank. For all patients, stored plasma samples were used for determination of dUrd.
Twenty-four patients with metastatic colorectal cancer (mCRC) treated with 5-FU plus 60 mg/m^2 LV were drawn at random from the database and levels of dUrd were determined at t0 and t24 from two treatment cycles for each patient and the mean values and standard deviations for the differences between t24 and t0 were calculated in the same way as for the [6R]-MTHF patients. Since LV is a “racemic” 50:50 mixture of the natural (S-formyl-tetrahydrofolate) and unnatural (R-formyl-tetrahydrofolate) isomers, the active isomer constitutes one half of the racemic LV doses given. The molecular weights for LV and [6R]-MTHF are very similar and therefore 60 mg of LV may be considered as equimolar with 30 mg of [6R]-MTHF.
All patients were enrolled in the ISO-CC-005 study and measured during two consecutive treatment cycles with 5-FU. Values for dUrd were measured immediately before injection of 5-FU (to) and after 24 hours (t24). Mean values and standard deviations for differences between t24 and to were calculated for the patients on each dose level of 30 and 60 mg/m^2 respectively.
The differences between all three groups were tested by means of the […] and thereafter the difference between the two equimolar groups LV 60 mg/m2 and 6R-MTHF 30 mg/m^2 was tested by means of the Mann-Whitney U test. P-values less than 0.05 were considered significant.
Plasma dUrd was determined by a method comprising liquid chromatography followed by tandem mass spectrometry broadly summarized as follows. Plasma samples were removed from −80° C. freezer, trichloroacetic acid was added to the plasma, and the samples mixed and centrifuged. The supernatant was filtered in a 10 kDa molecular weight cut-off membrane filter and again centrifuged for 30 min. The solution at the bottom of the tube was then ready for LC-MS/MS analysis. Calibration samples were prepared in the same way using blank plasma samples and different internal standard concentrations. The injection volume into LC-MS/MS was 40 μl. Deoxyuridine and chlorodeoxyuridine were ionized by electrospray negative mode. MS parameters were optimized for maximum response of all folates. A MS/MS acquisition method (multiple reaction monitoring) was utilized.

`Nc1nc2c(c(=O)[nH]1)N1CN(c3ccc(C(=O)N[C@@H](CCC(=O)O)C(=O)O)cc3)C[C@H]1CN2` [[6R]-MTHF, [6R]-5,10-methylenetetrahydrofolate]: the “Mean (t24-t0) plasma dUrd” value ([6R]-MTHF 30 mg/m^2 BSA bolus with 5-FU 500 mg/m^2, 24 hours, n=18) stood at 74.7 pmol/mL and the “Mean (t24-t0) plasma dUrd” value ([6R]-MTHF 60 mg/m^2 BSA bolus with 5-FU 500 mg/m^2, 24 hours, n=16) stood at 91.8 pmol/mL. Besides, the “level of dUrd vs equimolar LV, together with 5-FU” value ([6R]-MTHF 30 mg/m^2 vs LV 60 mg/m^2, p=0.03) is on record as “significantly higher”. Moreover, the “TS inhibition from fixed doses of 5-FU vs [6R]-MTHF dose (dUrd)” value (dUrd measurements incl. 120 mg vs 240 mg, ISO-CC-005) is “dose dependent and flattens off att very high doses”.
